# In patent US20080107757A1, “Sophorae Subprostratae Radix Extract for Prevention and Treatment of Respiratory Diseases” (priority 2004, published 2008):
# pIC50: −log10 of the molar value.
# Assays:
# [1] = test system: guinea pig; assay: Antitussive effect, citric acid aerosol-induced cough; type: in vivo
# Procedure: The method used was the method by M. H. Boskabady et al. (journal of Entnopharmacology 97, 2005, 79-82) with a bit of modifications.
# A Hartley male guinea pig (450˜500 g, SLC, Japan) was orally administered with a drug. 1 hr after the administration, the guinea pig was placed in Double Chamber Plethysmograph Box (HSE, Germany) installed with plethysmometer and stabilized by allowing a 5 min of time for adaptation. After the stabilization, 0.6M citric acid was sprayed to the guinea pig for 7 min in the form of aerosol by preparing a compressed air under high pressure. The guinea pig was observed continuously by a trained observer and the number of coughs induced by the above spray of citric acid aerosol was measured by using a microphone and a speaker. The coughs were distinguished from a normal sneeze due to its particular signs such as a peculiar and high sound with its mouth open, movement of abdomen, and an instant change in air flow.
# [2] = test system: Phosphodiesterase 4 (PDE4); assay: Inhibition of phosphodiesterase 4 (PDE4) activity, human U937 cells, [3H]cAMP; type: biochemical; settings: positive control
# Procedure: Human U937 cells were stabilized in the mixed solution comprising 50 mM Tris-HCl and 5 mM MgCl2 (pH 7.5) at 25° C. Sophorae Radix extract and 1.01 μM of ([3H]cAMP+cAMP) as a base material were combined together and allowed to react for 20 min to produce adenosine.
# [3] = test system: sensitized guinea pig; assay: Inhibition of airway contraction (in vivo), OVA aerosol bronchospasm, airway resistance by plethysmograph
# Procedure: To evaluate the inhibitory effect of Sophorae Radix extract prepared in Preparation Examples 1-3 against airway contraction, experiments were performed as described below by exposing antigens to a sensitized guinea pig and the results are shown in Table 2.
# A Hartely male guinea pig(400-450 g, SLC, Japan) was sensitized by intravenously injecting 1.5 mL/kg of anti-ovalbumin anti-serum. 48 hrs after the sensitization, the guinea pig was administered with a drug orally. In 30 min, the guinea pig was pretreated by injecting 10 mg/kg of pyrilamine maleate, 10 mg/kg of indomethacin, and 0.1 mg/kg of propranolol subcutaneously, respectively. Then, the guinea pig was placed in Double Chamber Plethysmograph Box(HSE, Germany) installed with plethysmometer for measuring various respiratory indices and measured basic airway resistance values. 30 min after the pretreatment, 1% OVA was nebulized for 2 min in the form of aerosol by preparing a compressed air under high pressure. Airway resistance was measured for 30 min as an indicator of bronchospasm.
structure (smiles),measurement,setting,value
COc1ccc2c(c1)[C@]13CCCC[C@@H]1[C@H](C2)N(C)CC3 [Dextromethorphan],Cough,[1]; 50 mg/kg oral,11.1 ± 2.5 (N = 7)
same,Inhibition (%) of cough,[1]; 50 mg/kg oral,9%
same,Cough,[1]; 100 mg/kg oral,4.5 ± 2.6 (N = 10)
same,Inhibition (%) of cough,[1]; 100 mg/kg oral,63%
"CC(C)Cn1c(=O)n(C)c(=O)c2[nH]cnc21 [IBMX, 3-isobutyl-1-methylxanthine]",pIC50,[2],4.68
CC(C)(O)c1ccccc1CC[C@@H](SCC1(CC(=O)O)CC1)c1cccc(/C=C/c2ccc3ccc(Cl)cc3n2)c1 [Montelukast],Inhibition Rate of Bronchospasm (%),[3]; 10 mg/kg oral,45%
same,Inhibition Rate of Bronchospasm (%),[3]; 40 mg/kg oral,75%
same,Cough,[1]; 10 mg/kg oral,11.1 ± 2.9 (N = 9)
same,Inhibition (%) of cough,[1]; 10 mg/kg oral,10%
same,Cough,[1]; 40 mg/kg oral,11.4 ± 4.3 (N = 7)
same,Inhibition (%) of cough,[1]; 40 mg/kg oral,7%
